SMILES strings stand for the structures.

Usually melting point stands for the temperature of the solid-liquid transition. `CCN(CCCCC1CCN(C(c2ccccc2)c2ccccc2)CC1)C(=O)CCc1cccnc1` [compound 68, N-[4-(1-diphenylmethyl-piperidin-4-yl)-butyl]-N-ethyl-3-(pyridin-3-yl) -propionamide] displayed a melting point of 72 to 74 °C. The compound `O=C(COc1cccnc1)NCCCCC1CCN(C(c2ccccc2)c2ccccc2)CC1` [compound 84, N-[4-(1-diphenylmethyl-piperidin-4-yl)-butyl]-2-(pyridin-3-yloxy)-acetamide] registered a melting point of 103 to 105 °C. `O=C(CCc1cccnc1)NCCCCCC1CCN(C(c2ccccc2)c2ccccc2)CC1` [compound 101, N-[5-(1-diphenylmethyl-piperidin-4-yl)-pentyl]-3-(pyridin-3-yl)-propionamide] displayed a melting point of 112 to 114 °C. Under `O=C(CCc1cccnc1)NCCCCC1CCN(C2c3ccccc3COc3ccccc32)CC1` (centres unmarked) [compound 142, N-{4-[1-(6,11-dihydrodibenzo[b,e]oxepin-11-yl)-piperidin-4-yl]-butyl}-3-(pyridin-3-yl)-propionamide] stands 110 to 112 °C; under `O=C(CCc1cccnc1)NCCCCC1CCN(C(=O)c2ccccc2)CC1` [compound 162, N-[4-(1-benzoylpiperidin-4-yl)-butyl]-3-(pyridin-3-yl)-propionamide], 72 to 74 °C.

Source of the values: US7276524B2, “Pyridyl alkane acid amides as cytostatics and immunosuppressives” (Astellas Deutschland GmbH, priority 1996, dated 2007).
